The values that follow come from article PMC8217266 (Clinical Pharmacology and Therapeutics, 2021).

One assay addresses T1, human OATP2B1 (Homo sapiens, UniProt O94956).
T1 sequence (O94956 1-709): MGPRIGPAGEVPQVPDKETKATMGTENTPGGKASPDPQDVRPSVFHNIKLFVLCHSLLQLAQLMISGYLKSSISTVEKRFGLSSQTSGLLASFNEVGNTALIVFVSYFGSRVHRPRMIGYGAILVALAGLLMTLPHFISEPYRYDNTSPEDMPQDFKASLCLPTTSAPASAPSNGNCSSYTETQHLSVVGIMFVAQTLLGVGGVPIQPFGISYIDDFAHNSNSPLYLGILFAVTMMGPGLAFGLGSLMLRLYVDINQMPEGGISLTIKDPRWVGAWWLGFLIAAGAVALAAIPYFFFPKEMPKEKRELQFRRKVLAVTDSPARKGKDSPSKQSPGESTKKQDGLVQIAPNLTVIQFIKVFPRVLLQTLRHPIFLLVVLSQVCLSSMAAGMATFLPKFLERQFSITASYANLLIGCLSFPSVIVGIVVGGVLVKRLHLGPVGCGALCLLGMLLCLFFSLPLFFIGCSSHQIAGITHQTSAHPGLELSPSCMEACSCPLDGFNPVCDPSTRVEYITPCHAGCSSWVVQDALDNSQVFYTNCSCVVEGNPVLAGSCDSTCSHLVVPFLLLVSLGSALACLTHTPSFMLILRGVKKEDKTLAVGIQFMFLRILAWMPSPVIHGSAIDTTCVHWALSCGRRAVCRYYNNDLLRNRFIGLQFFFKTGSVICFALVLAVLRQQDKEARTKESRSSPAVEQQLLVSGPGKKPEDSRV
As to the kind of experiment: cell-based. The conditions noted are these: IC50 OATP2B1, experimental, mean ± SD; stable cells; substrate ES.

In the next assay the target is T2, human OAT1 (Homo sapiens, UniProt Q4U2R8).
T2 sequence (Q4U2R8 1-563): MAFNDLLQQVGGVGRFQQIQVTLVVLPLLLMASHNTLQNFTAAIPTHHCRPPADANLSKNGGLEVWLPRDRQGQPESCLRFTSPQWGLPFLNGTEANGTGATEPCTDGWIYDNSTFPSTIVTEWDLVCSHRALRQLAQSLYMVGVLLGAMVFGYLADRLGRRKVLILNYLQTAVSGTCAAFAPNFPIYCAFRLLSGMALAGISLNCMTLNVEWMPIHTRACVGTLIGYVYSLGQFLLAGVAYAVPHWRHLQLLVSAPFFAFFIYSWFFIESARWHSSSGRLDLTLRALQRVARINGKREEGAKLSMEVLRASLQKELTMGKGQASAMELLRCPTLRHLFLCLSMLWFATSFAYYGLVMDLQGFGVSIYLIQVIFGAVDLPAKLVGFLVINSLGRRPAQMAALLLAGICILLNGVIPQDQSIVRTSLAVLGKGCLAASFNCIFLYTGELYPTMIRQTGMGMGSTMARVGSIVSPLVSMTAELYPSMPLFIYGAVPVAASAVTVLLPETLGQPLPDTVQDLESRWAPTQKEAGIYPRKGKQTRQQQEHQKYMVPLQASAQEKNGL
The experiment in a line: cell-based.

A further assay deals with T3, human OAT3 (Homo sapiens, UniProt Q8TCC7).
T3 sequence (Q8TCC7 1-542): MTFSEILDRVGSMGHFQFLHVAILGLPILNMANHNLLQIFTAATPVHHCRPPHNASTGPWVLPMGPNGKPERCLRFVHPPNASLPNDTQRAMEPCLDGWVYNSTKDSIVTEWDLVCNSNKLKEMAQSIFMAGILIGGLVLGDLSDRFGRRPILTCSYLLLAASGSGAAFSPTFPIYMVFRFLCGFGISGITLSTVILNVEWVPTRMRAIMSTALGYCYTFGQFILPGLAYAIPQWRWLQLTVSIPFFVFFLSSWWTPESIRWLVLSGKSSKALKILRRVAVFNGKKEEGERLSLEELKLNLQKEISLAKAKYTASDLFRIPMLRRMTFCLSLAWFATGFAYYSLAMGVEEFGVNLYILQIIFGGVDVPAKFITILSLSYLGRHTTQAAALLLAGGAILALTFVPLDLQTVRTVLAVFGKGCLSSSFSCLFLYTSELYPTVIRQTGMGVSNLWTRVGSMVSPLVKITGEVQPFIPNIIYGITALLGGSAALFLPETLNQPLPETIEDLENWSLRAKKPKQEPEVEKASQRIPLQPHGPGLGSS
As to the kind of experiment: cell-based.

The target of another assay is P-gp (Homo sapiens, UniProt P08183). The experiment in a line: biochemical.
A further assay concerns the target T4, human OCT1 (Homo sapiens, UniProt O15245).
T4 sequence (O15245 1-554): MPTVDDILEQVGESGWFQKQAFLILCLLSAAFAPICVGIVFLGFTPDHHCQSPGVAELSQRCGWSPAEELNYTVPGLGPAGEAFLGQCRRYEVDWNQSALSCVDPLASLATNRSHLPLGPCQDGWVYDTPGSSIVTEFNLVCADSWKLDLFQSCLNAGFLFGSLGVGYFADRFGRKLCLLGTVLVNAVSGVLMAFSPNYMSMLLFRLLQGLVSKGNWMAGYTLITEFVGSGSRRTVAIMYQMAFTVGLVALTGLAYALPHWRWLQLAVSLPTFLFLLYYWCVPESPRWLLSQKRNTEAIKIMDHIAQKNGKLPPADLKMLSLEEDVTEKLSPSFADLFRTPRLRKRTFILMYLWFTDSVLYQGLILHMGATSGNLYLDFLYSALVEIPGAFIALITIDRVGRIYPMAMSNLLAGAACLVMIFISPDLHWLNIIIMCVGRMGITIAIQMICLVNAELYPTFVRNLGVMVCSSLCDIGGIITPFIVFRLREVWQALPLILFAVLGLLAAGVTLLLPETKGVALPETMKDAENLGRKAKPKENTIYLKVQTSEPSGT
The experiment in a line: cell-based.

P-gp, sequence (P08183 whole entry): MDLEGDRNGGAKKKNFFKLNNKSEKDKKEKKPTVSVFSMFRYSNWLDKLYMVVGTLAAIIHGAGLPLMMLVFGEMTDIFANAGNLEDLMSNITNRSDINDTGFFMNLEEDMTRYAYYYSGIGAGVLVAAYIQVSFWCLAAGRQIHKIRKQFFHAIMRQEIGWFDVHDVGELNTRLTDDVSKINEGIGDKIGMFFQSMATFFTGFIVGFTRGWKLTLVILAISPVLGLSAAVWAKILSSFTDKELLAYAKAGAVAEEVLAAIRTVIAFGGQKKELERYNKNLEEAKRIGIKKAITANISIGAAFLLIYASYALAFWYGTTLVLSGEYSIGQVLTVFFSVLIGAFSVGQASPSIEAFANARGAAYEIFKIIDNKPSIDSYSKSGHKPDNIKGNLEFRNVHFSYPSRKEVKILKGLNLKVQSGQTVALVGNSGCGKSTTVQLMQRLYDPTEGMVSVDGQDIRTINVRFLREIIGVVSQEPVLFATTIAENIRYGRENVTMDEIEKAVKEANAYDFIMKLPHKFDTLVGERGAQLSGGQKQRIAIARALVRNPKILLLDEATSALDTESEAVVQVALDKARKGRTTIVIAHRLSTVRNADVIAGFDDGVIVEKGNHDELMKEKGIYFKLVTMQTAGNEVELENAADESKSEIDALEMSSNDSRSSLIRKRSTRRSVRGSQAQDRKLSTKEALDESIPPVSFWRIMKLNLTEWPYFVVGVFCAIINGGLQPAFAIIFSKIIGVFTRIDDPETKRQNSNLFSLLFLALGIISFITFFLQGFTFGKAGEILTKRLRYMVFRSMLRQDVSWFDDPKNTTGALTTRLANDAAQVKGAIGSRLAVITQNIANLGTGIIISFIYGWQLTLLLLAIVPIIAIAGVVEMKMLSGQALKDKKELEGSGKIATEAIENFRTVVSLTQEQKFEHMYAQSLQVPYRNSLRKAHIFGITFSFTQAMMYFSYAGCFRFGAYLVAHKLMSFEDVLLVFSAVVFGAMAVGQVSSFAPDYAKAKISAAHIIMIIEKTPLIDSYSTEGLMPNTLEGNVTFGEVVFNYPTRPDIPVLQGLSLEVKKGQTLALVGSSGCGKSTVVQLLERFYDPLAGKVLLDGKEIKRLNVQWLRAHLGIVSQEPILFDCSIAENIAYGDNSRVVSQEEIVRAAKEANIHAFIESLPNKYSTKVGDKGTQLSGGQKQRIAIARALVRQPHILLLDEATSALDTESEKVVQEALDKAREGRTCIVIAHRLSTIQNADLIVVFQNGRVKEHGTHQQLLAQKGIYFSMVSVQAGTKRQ

Usually IC50 stands for the concentration that inhibits the measured activity by half. A higher IC50 goes with a need for much substance. Regarding `CC(C)CN(C[C@@H](O)[C@H](Cc1ccccc1)NC(=O)O[C@H]1CO[C@H]2OCC[C@H]21)S(=O)(=O)c1ccc(N)cc1` [Darunavir], the IC50 turned out to be 30.6 ± 7.7 µM on human OATP2B1, 95 µM against human OAT1, 37.9 ± 9.5 µM against human OAT3 and 16 µM on P-gp.

For the compound `CCC(CC)COC(=O)[C@H](C)N[P@](=O)(OC[C@H]1O[C@@](C#N)(c2ccc3c(N)ncnn23)[C@H](O)[C@@H]1O)Oc1ccccc1` [Remdesivir], the IC50 on human OATP2B1 is 3.5 ± 0.4 µM; on human OCT1, 10.1 ± 0.01 µM; on human OAT1 it was > 100 µM; against human OAT3, 14 ± 1.7 µM; at P-gp it was 14 µM.

Regarding `N#CC[C@H](C1CCCC1)n1cc(-c2ncnc3[nH]ccc23)cn1` [Ruxolitinib], the half-inhibitory concentration (IC50) against human OATP2B1 is 17.4 ± 8.6 µM; at human OCT1, 9.7 ± 4.3 µM; against human OAT1, > 100 µM; against human OAT3, 6.1 ± 0.6 µM; at P-gp, > 100 µM.

On to `CCCc1nn(C)c2c(=O)[nH]c(-c3cc(S(=O)(=O)N4CCN(C)CC4)ccc3OCC)nc12` [Sildenafil], for which the half-inhibitory concentration (IC50) was 39 ± 12.8 µM on human OATP2B1; 19.8 ± 6.4 µM against human OCT1; > 100 µM against human OAT1; 20.5 ± 3.1 µM against human OAT3; 16 µM against P-gp.

Take `CCOC(=O)c1c(CSc2ccccc2)n(C)c2cc(Br)c(O)c(CN(C)C)c12` [Umifenovir (Arbidol), Umifenovir]: the half-maximal inhibitory concentration (IC50) against human OATP2B1 was 3.5 ± 1.2 µM; against human OCT1, 1.2 ± 0.1 µM; at human OAT1 it was > 100 µM; at human OAT3 it was 58.6 ± 21.9 µM; against P-gp it was 16 ± 2 µM.
